Laboratory results: paper PMC4628008, “Characterization of Lactobacillus salivarius alanine racemase: short-chain carboxylate-activation and the role of A131” (SpringerPlus, 2015)
Changes are numbered by the printed parent chain. Names may count otherwise.

T1: L. salivarius alanine racemase (ALR) (Ligilactobacillus salivarius, UniProt Q1WV14)
T1 construct: full-length ORF in pET-28a (NdeI/XhoI, own stop codon), N-terminal His tag, tag kept; E. coli BL21-CodonPlus(DE3)-RIPL
T1 sequence (Q1WV14 1-371): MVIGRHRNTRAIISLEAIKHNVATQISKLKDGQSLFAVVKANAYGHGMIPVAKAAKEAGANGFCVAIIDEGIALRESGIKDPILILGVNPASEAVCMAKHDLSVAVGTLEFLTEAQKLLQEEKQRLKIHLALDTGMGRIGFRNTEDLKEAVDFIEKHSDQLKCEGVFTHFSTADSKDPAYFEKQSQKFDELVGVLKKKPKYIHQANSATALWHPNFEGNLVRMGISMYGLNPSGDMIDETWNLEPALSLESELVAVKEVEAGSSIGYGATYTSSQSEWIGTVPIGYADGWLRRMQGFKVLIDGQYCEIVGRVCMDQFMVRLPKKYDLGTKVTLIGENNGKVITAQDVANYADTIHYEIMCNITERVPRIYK

B1: L. salivarius alanine racemase (ALR) (Ligilactobacillus salivarius UCC118) (protein)
chain: T1 sequence (Q1WV14 1-371)
B2: L. salivarius alanine racemase (ALR) (Ligilactobacillus salivarius UCC118; A131K) (protein)
chain: T1 sequence (Q1WV14 1-371) with A131K

Key:
[1] = target: T1, L. salivarius alanine racemase (ALR); experiment: UPLC activity assay; type: biochemical; conditions: 20 mM L-alanine; 0.05 mM PLP; pH 7.0 (MES), 30 °C
[2] = target: T2, L. salivarius alanine racemase (ALR) (Ligilactobacillus salivarius, UniProt Q1WV14, A131K); experiment: UPLC activity assay; type: biochemical; conditions: 20 mM L-alanine; 0.05 mM PLP; pH 7.0 (MES), 30 °C
T2 construct: full-length ORF in pET-28a (NdeI/XhoI, own stop codon), N-terminal His tag, tag kept; E. coli BL21-CodonPlus(DE3)-RIPL
T2 sequence (Q1WV14 whole entry A131K): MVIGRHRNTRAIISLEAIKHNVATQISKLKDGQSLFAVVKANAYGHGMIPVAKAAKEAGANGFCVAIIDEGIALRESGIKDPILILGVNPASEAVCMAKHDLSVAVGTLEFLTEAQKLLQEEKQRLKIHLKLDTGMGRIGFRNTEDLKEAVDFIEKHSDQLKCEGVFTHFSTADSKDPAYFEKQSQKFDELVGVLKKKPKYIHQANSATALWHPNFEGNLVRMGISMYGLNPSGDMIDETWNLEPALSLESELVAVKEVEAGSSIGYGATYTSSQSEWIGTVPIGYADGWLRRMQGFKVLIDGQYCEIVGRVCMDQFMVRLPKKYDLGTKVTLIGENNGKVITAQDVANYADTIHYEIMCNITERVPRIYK

[3] = target: T1, L. salivarius alanine racemase (ALR); experiment: UPLC activity assay; type: biochemical; conditions: 20 mM L-alanine; 0.05 mM PLP; pH 7.0 (MES), 30 °C; activator
[4] = substrate: C[C@H](N)C(=O)O; experiment: purified protein; conditions: no acetate, 0.05 mM PLP, pH 7.0 (MES), 30 °C

Row | Molecule | relative activity at 1 mM (inhibition) [1] | relative activity at 1 mM (inhibition) [2] | relative activity at 1 mM (activation) [3] | Km [4] [mM]
1 | CC(O)C(=O)O (racemic) [D, L-lactate] | ALR and ALR^A131K were both inhibited by D, L-lactate | ALR and ALR^A131K were both inhibited by D, L-lactate |  | 
2 | CCCC(=O)O [butyrate] |  | both propionate and butyrate strongly inhibited ALR^A131K | they strongly activated L. salivarius ALR | 
3 | O=C(O)CC(=O)C(=O)O [oxaloacetate] |  | succinate, pyruvate, 2-oxoglutarate, oxaloacetate and aspartate also more strongly inhibited ALR^A131K than ALR |  | 
4 | CCC(=O)O [propionate] |  | both propionate and butyrate strongly inhibited ALR^A131K | they strongly activated L. salivarius ALR | 
5 | CC(=O)C(=O)O [pyruvate] |  | succinate, pyruvate, 2-oxoglutarate, oxaloacetate and aspartate also more strongly inhibited ALR^A131K than ALR |  | 
6 | B1 |  |  |  | 11.5
7 | B2 |  |  |  | 9.20
